{"source": "patent US20030108484A1", "about": "“Individualization of therapy with antineoplastic agents” (McGill University, priority 2001, published 2003)", "key": {"AAMU-Ab": {"system": "AAMU-Ab", "assay": "Competitive antigen ELISA, cross-reactivity of AAMU-Ab", "assay_type": "binding, rabbit", "conditions": "for % Cross-Reaction AAMU-Ab: competitive antigen ELISA, 0 = absence of inhibition or inhibition no higher than 40% at highest concentration tested (5×10^−3 M)", "description": "(§1) Buffers and water without additives are filtered through millipore filters and kept for 1 week. BSA, antibodies, Tween™ 20 and horse radish peroxidase conjugates are added to these buffers and water just prior to use. Urine samples are usually collected 4 hours after drinking a cup of coffee (instant or brewed with approximately 100 mg of caffeine per cup) and stored at −80° C. The urine samples are diluted 10 times with sodium phosphate buffer (620 mosm, pH 7.50) and are subsequently diluted with water to give concentrations of AAMU and 1X no higher than 3×10^−6 M in the ELISA. All the pipettings are done with an eight-channel pipette, except those of the antibody and sample solutions. Starting with the last well, 100 μL of a carbonate buffer (100 mM, pH 9.6) containing 2.5 μg mL^−1 antibodies are added to each well. After 90 min. at room temperature, the wells are washed three times with […] of TPB: isotonic sodium phosphate buffer (310 mosm, pH 7.50) containing 0.05% Tween™ 20.\n(§2) After the initial wash, unoccupied sites are blocked by incubation for 90 min. at room temperature with 100 μL TBP containing 3% BSA. The wells are washed four times with 100 μL TPB. […] The microplate is gently shaken with an orbital shaker at room temperature for 3-4 hours. The wells are washed three times with 100 μL TPB containing 1% BSA and three times with water containing 0.05% Tween™ 20. To the washed plate is added 150 μL of a substrate buffer composed of citric acid (25 mM) and sodium phosphate dibasic buffer (50 mM, pH 5.0) containing 0.06% hydrogen peroxide and 0.04% o-phenylenediamine hydrochloride.\n(§3) Buffers and water without additives were filtered through millipore filters and kept for 1 week. BSA, antibodies, Tween™ 20 and horse radish peroxidase conjugates were added to these buffers and water just prior to use. Urine samples were usually collected 4 hours after drinking a cup of coffee (instant or brewed with approximately 100 mg of caffeine per cup) and stored at −80° C. They were diluted 10 times with sodium phosphate buffer (620 mosm, pH 7.50) and were subsequently diluted with water to give concentrations of AAMU and 1X no higher than 3×10^−6 M in the ELISA. All the pipettings were done with an eight-channel pipette, except those of the antibody and sample solutions. Starting with the last well, 100 μL of a carbonate buffer (100 mM, pH 9.6) containing 2.5 μg mL^−1 antibodies was pipetted. After 90 min. at room temperature, the wells were washed three times with 100 μL of TPB: isotonic sodium phosphate buffer (310 mosm, pH 7.50) containing 0.05% TweenTm 20.\n(§4) After the initial wash, unoccupied sites were blocked by incubation for 90 min. at room temperature with […] TBP containing 3% BSA. The wells were washed four times with 100 μL TPB. […] The microplate was gently shaken with an orbital shaker at room temperature for 3-4 hours. The wells were washed three times with 100 μL with TPB containing 1% BSA and three times with water containing 0.05% Tween™ 20. To the washed plate was added 150 μL of a substrate buffer composed of citric acid (25 mM) and sodium phosphate dibasic buffer (50 mM, pH 5.0) containing 0.06% hydrogen peroxide and 0.04% o-phenylenediamine hydrochloride. After 20 min. at room temperature with shaking, the reaction was stopped with 50 μL of 2.5 N HCl.\n(§5) The cross reactivities of AAMU-Ab and 1X-Ab were tested using a wide variety of caffeine metabolites and structural analogs (Table 2 below)."}, "1X-Ab": {"system": "1X-Ab", "assay": "Competitive antigen ELISA, cross-reactivity of 1X-Ab", "assay_type": "binding, rabbit", "conditions": "for % Cross-Reaction 1X-Ab: competitive antigen ELISA, 0 = absence of inhibition or inhibition no higher than 40% at highest concentration tested (5×10^−3 M)", "description": "as §1, §2, §3, §4, §5"}, "[1]": {"conditions": "p<0.05, cited from earlier work"}, "breast cancer": {"system": "breast cancer", "conditions": "first-line chemotherapy; cited from earlier work"}, "[2]": {"conditions": "cited from earlier work"}, "[3]": {"conditions": "individuals receiving 550 mg/m^2; cited from earlier work"}, "[4]": {"system": "estrogen receptor-positive breast cancer and bone metastases", "conditions": "cited from earlier work"}}, "note": "Read-outs that look alike come from different tables or passages of the source. Marks after values point to notes of the source that are not given here."}
{"smiles": "Cn1c(=O)c2c(ncn2C)n(C)c1=O", "note": "[1,3,7-Trimethyl Xanthine (Caffeine), 1,3,7-Trimethyl Xanthine]", "values": [{"measurement": "% Cross-Reaction AAMU-Ab", "setting": "AAMU-Ab", "value": 0, "unit": "%"}, {"measurement": "% Cross-Reaction 1X-Ab", "setting": "1X-Ab", "value": 0, "unit": "%"}]}
{"smiles": "Cn1c(=O)c2[nH]cnc2n(C)c1=O", "note": "[1,3-Dimethyl Xanthine (Theophylline), 1,3-Dimethyl Xanthine]", "values": [{"measurement": "% Cross-Reaction AAMU-Ab", "setting": "AAMU-Ab", "value": 0, "unit": "%"}, {"measurement": "% Cross-Reaction 1X-Ab", "setting": "1X-Ab", "value": 0.2, "unit": "%"}]}
{"smiles": "Cn1c(=O)[nH]c2ncn(C)c2c1=O", "note": "[1,7-Dimethyl Xanthine (Paraxanthine), 1,7-Dimethyl Xanthine]", "values": [{"measurement": "% Cross-Reaction AAMU-Ab", "setting": "AAMU-Ab", "value": 0, "unit": "%"}, {"measurement": "% Cross-Reaction 1X-Ab", "setting": "1X-Ab", "value": 0.5, "unit": "%"}]}
{"smiles": "Cn1c(=O)[nH]c2[nH]c(=O)n(C)c2c1=O", "note": "[1,7-Dimethyluric acid]", "values": [{"measurement": "% Cross-Reaction AAMU-Ab", "setting": "AAMU-Ab", "value": 0, "unit": "%"}, {"measurement": "% Cross-Reaction 1X-Ab", "setting": "1X-Ab", "value": 0, "unit": "%"}]}
{"smiles": "Cn1c(=O)[nH]c2nc[nH]c2c1=O", "note": "[1-Methyl Xanthine (1X), 1-Methyl Xanthine]", "values": [{"measurement": "% Cross-Reaction AAMU-Ab", "setting": "AAMU-Ab", "value": 0, "unit": "%"}, {"measurement": "% Cross-Reaction 1X-Ab", "setting": "1X-Ab", "value": 100, "unit": "%"}, {"measurement": "IC50", "setting": "1X-Ab; read-out: concentration required for 50% inhibition in the competitive antigen ELISA, 1X-Ab", "value": 10, "unit": "µM"}]}
{"smiles": "Cn1c(=O)[nH]c2[nH]c(=O)[nH]c2c1=O", "note": "[1-Methyluric acid]", "values": [{"measurement": "% Cross-Reaction AAMU-Ab", "setting": "AAMU-Ab", "value": 0, "unit": "%"}, {"measurement": "% Cross-Reaction 1X-Ab", "setting": "1X-Ab", "value": 11, "unit": "%"}]}
{"smiles": "Cn1cnc2c1c(=O)[nH]c(=O)n2C", "note": "[3,7-Dimethyl Xanthine (Theobromine), 3,7-Dimethyl Xanthine]", "values": [{"measurement": "% Cross-Reaction AAMU-Ab", "setting": "AAMU-Ab", "value": 0, "unit": "%"}, {"measurement": "% Cross-Reaction 1X-Ab", "setting": "1X-Ab", "value": 0, "unit": "%"}]}
{"smiles": "Cn1c(=O)[nH]c(=O)c2[nH]cnc21", "note": "[3-Methyl Xanthine]", "values": [{"measurement": "% Cross-Reaction AAMU-Ab", "setting": "AAMU-Ab", "value": 0, "unit": "%"}, {"measurement": "% Cross-Reaction 1X-Ab", "setting": "1X-Ab", "value": 0, "unit": "%"}]}
{"smiles": "CC(=O)Nc1c(N)n(C)c(=O)n(C)c1=O", "note": "[5-Acetamino-6-amino-1,3-dimethyluracil]", "values": [{"measurement": "% Cross-Reaction AAMU-Ab", "setting": "AAMU-Ab", "value": 0, "unit": "%"}, {"measurement": "% Cross-Reaction 1X-Ab", "setting": "1X-Ab", "value": 0, "unit": "%"}]}
{"smiles": "CC(=O)Nc1c(N)n(C)c(=O)[nH]c1=O", "note": "[5-Acetamino-6-amino-1-methyluracil]", "values": [{"measurement": "% Cross-Reaction AAMU-Ab", "setting": "AAMU-Ab", "value": 100, "unit": "%"}, {"measurement": "IC50", "setting": "AAMU-Ab; read-out: concentration required for 50% inhibition in the competitive antigen ELISA, AAMU-Ab", "value": 1.5, "unit": "µM"}, {"measurement": "% Cross-Reaction 1X-Ab", "setting": "1X-Ab", "value": 0, "unit": "%"}]}
{"smiles": "CC(=O)Nc1c(N)[nH]c(=O)[nH]c1=O", "note": "[5-Acetamino-6-amino-uracil]", "values": [{"measurement": "% Cross-Reaction AAMU-Ab", "setting": "AAMU-Ab", "value": 0.6, "unit": "%"}, {"measurement": "% Cross-Reaction 1X-Ab", "setting": "1X-Ab", "value": 0, "unit": "%"}]}
{"smiles": "Cn1cnc2[nH]c(=O)[nH]c(=O)c21", "note": "[7-Methyl Xanthine]", "values": [{"measurement": "% Cross-Reaction AAMU-Ab", "setting": "AAMU-Ab", "value": 0, "unit": "%"}, {"measurement": "% Cross-Reaction 1X-Ab", "setting": "1X-Ab", "value": 0, "unit": "%"}]}
{"smiles": "Cc1nc2[nH]c(=O)[nH]c(=O)c2[nH]1", "note": "[8-Methyl Xanthine]", "values": [{"measurement": "% Cross-Reaction AAMU-Ab", "setting": "AAMU-Ab", "value": 0, "unit": "%"}, {"measurement": "% Cross-Reaction 1X-Ab", "setting": "1X-Ab", "value": 0, "unit": "%"}]}
{"smiles": "COc1ccc2c(c1)[C@]13CCCC[C@@H]1[C@H](C2)N(C)CC3", "note": "[Dextromethorphan]", "values": [{"measurement": "mean performance +/-SE", "setting": "[1]; extensive metabolizers (EMs)", "value": "95+/−0.5%"}, {"measurement": "mean performance +/-SE", "setting": "[1]; poor metabolizers (PMs)", "value": "86+/−6%"}]}
{"smiles": "CC(=O)O[C@@]12CO[C@@H]1C[C@H](O)[C@@]1(C)C(=O)[C@H](O)C3=C(C)[C@@H](OC(=O)[C@H](O)[C@@H](NC(=O)OC(C)(C)C)c4ccccc4)C[C@@](O)([C@@H](OC(=O)c4ccccc4)[C@H]21)C3(C)C", "note": "[Docetaxel]", "values": [{"measurement": "front-line response rate in breast cancer", "setting": "breast cancer", "value": "up to 73%"}]}
{"smiles": "Nc1nc2nc[nH]c2c(=O)[nH]1", "note": "[Guanine]", "values": [{"measurement": "% Cross-Reaction AAMU-Ab", "setting": "AAMU-Ab", "value": 0, "unit": "%"}, {"measurement": "% Cross-Reaction 1X-Ab", "setting": "1X-Ab", "value": 0, "unit": "%"}]}
{"smiles": "O=c1[nH]cnc2nc[nH]c12", "note": "[Hypoxanthine]", "values": [{"measurement": "% Cross-Reaction AAMU-Ab", "setting": "AAMU-Ab", "value": 0, "unit": "%"}, {"measurement": "% Cross-Reaction 1X-Ab", "setting": "1X-Ab", "value": 0, "unit": "%"}]}
{"smiles": "O=c1cc[nH]c(=O)[nH]1", "note": "[Uracil]", "values": [{"measurement": "% Cross-Reaction AAMU-Ab", "setting": "AAMU-Ab", "value": 0, "unit": "%"}, {"measurement": "% Cross-Reaction 1X-Ab", "setting": "1X-Ab", "value": 0, "unit": "%"}]}
{"smiles": "O=c1[nH]c(=O)c2[nH]c(=O)[nH]c2[nH]1", "note": "[Uric acid]", "values": [{"measurement": "% Cross-Reaction AAMU-Ab", "setting": "AAMU-Ab", "value": 0, "unit": "%"}, {"measurement": "% Cross-Reaction 1X-Ab", "setting": "1X-Ab", "value": 0, "unit": "%"}]}
{"smiles": "O=c1[nH]c(=O)c2[nH]cnc2[nH]1", "note": "[Xanthine]", "values": [{"measurement": "% Cross-Reaction AAMU-Ab", "setting": "AAMU-Ab", "value": "0^a %"}, {"measurement": "% Cross-Reaction 1X-Ab", "setting": "1X-Ab", "value": 0, "unit": "%"}]}
{"smiles": "Nc1ccc(S(=O)(=O)c2ccc(N)cc2)cc1", "note": "[dapsone]", "values": [{"measurement": "adverse reactions", "setting": "[2]; fast acetylators", "value": 17, "unit": "%"}, {"measurement": "adverse reactions", "setting": "[2]; slow acetylators", "value": 46, "unit": "%"}]}
{"smiles": "COc1cccc2c1C(=O)c1c(O)c3c(c(O)c1C2=O)C[C@@](O)(C(=O)CO)C[C@@H]3O[C@H]1C[C@H](N)[C@H](O)[C@H](C)O1", "note": "[doxorubicin]", "values": [{"measurement": "front-line response rate in breast cancer", "setting": "breast cancer", "value": 53, "unit": "%"}, {"measurement": "incidence of cardiomyopathy (congestive heart failure and dysrhythmias)", "setting": "[3]", "value": "approximately 2%"}]}
{"smiles": "CC/C(=C(\\c1ccccc1)c1ccc(OCCN(C)C)cc1)c1ccccc1", "note": "[tamoxifen]", "values": [{"measurement": "occurrence of hormone flare (increasing bone pain, erythema, hypercalcemia)", "setting": "[4]; after 7-14 days of treatment, women with estrogen receptor-positive breast cancer and bone metastases", "value": "approximately 5%"}, {"measurement": "individuals with hormone flare who respond to tamoxifen", "setting": "[4]; individuals with hormone flare", "value": 75, "unit": "%"}]}
